Type in all cases: in vivo
The subject of assay [1] is Pyrenophora teres on barley. The assay is described as follows: Greenhouse trial, 4 day residual, Pyrenophora teres on barley. The source says:
(§1) The fungicides are applied in single treatments, or in a combination comprising a benzophenone of formula I and a compound selected from (A) through (E) as defined above. The compounds are applied in form of an aqueous spray mix obtained from a concentrated formulation or the technical material.
(§2) 1. Seed is planted in 6 cm diameter plastic pots and maintained in the greenhouse.
(§3) 2. When the primary leaf is fully expanded (in the case of cereals) or several leaves are present (in the case of dicots), formulated test compounds are sprayed with a three nozzle overhead fungicide sprayer to near run-off. Alternatively, a single nozzle overhead track sprayer is used for application of the compounds to cereals at a rate of 200 liters/ha (l/ha). Plants are then allowed to air-dry.
(§4) 3. Inoculation precedes treatment in the case of curative evaluations and follows treatment in case of residual evaluations. For inoculation of powdery mildew disease, plants are set up on greenhouse benches with bottom watering mats and inoculated by dusting them with conidia from infected plants. Between inoculation and treatment for curative evaluations and between treatment and inoculation for residual evaluations, plants are maintained in the greenhouse with bottom watering. For inoculation of non-powdery mildew diseases, an aqueous spore suspension of the pathogen is applied to the plant and the plants are kept 1-2 days in a moist infection chamber before being returned to the greenhouse where they are maintained by bottom watering.
(§5) 4. Disease on the foliage as percent leaf area with disease symptoms/signs is evaluated about 7 days after inoculation. In the case of wheat, the tips and bases of the leaves are excluded from the evaluation. [formula]
(§6) 1. Technical compounds are formulated in a solvent/surfactant system consisting of 5% acetone and 0.05% Tween 20 in deionized water. Compounds are dissolved in acetone prior to addition of the water; the Tween 20 can be added through either the acetone or the water. Dilutions are made using the solvent/surfactant system. Formulated compounds are prepared using deionized water.
(§7) Assessments of the diseases took place at the indicated day after the application of the compounds. Per cent infected leaf area infected was evaluated. The efficacy of the compounds/compounds mixtures to control the diseases was calculated by using the formula given above under item 4: […]
(§8) Synergy of a fungicide mixture was determined by comparing the actual (observed) fungicidal activity of the mixture to the expected fungicidal activity of the mixture as calculated using the COLBY formula given hereinabove.
Fungicidal Efficacy of the Mixture of BP-4+Other Fungicides (4 Day Residual) Against Pyrenophora teres on Barley

The test system of assay [2] is Erysiphe cichoracearum on cucumbers. The assay is described as follows: Greenhouse trial, 4 day residual, Erysiphe cichoracearum on cucumbers. The following applies: for pest or weed control at 4 ppm / pest or weed control at 16 ppm / pest or weed control at 64 ppm / pest or weed control at 256 ppm / pest or weed control at 0.4 ppm / pest or weed control at 2 ppm / pest or weed control at 10 ppm / pest or weed control at 50 ppm: Golovinomyces cichoracearum, 96 h, read-out: Observed Efficacy.
Description: as §1, §2, §3, §4, §5, §6, §7, §8

For assay [3], the system named is Leptosphaeria nodorum on wheat. The assay is described as follows: Greenhouse trial, 4 day residual, Leptosphaeria nodorum on wheat. The following applies: Table VIII, compound alone; for pest or weed control at 4 ppm / pest or weed control at 16 ppm / pest or weed control at 64 ppm / pest or weed control at 256 ppm: Parastagonospora nodorum, 96 h, read-out: Observed Efficacy.
Description: as §1, §2, §3, §4, §5, §6, §7, §8
Fungicidal Efficacy of the Mixture of BP-4+Other Fungicides (4 Day Residual) Against Leptosphaeria nodorum on Wheat

The test system of assay [4] is Puccinia recondita on wheat. The assay is described as follows: Greenhouse trial, 4 day residual, Puccinia recondita on wheat.
Description: as §1, §2, §3, §4, §5, §6, §7, §8
Fungicidal Efficacy of the Mixture of BP-4+Other Fungicides (4 Day Residual) Against Puccinia recondita on Wheat
Fungicidal Efficacy of the Mixture of BP-4+Myclobutanil (4 Day Residual) Against Puccinia recondita on Wheat

The mark [5] stands for this setting: Table XIII (Example 13), 4 day residual, dose rate 0.4 ppm.
[6] abbreviates: Table XIII (Example 13), 4 day residual, dose rate 2 ppm.
Where [7] appears, read: Table XIII (Example 13), 4 day residual, dose rate 10 ppm.
Where [8] appears, read: Table XIII (Example 13), 4 day residual, dose rate 50 ppm.
Setting [9] is: Table XI, compound alone, dose rate 0.4 ppm.
The mark [10] stands for this setting: Table XI, compound alone, dose rate 2 ppm.
[11] abbreviates: Table XI, compound alone, dose rate 10 ppm.
Setting [12] is: Table XI, compound alone, dose rate 50 ppm.
The mark [13] stands for this setting: Table VII, compound alone, dose rate 4 ppm.
[14] abbreviates: Table VII, compound alone, dose rate 16 ppm.
Setting [15] is: Table VII, compound alone, dose rate 64 ppm.
The mark [16] stands for this setting: Table VII, compound alone, dose rate 256 ppm.
The mark [17] stands for this setting: Table VI, compound alone, dose rate 4 ppm.
Where [18] appears, read: Table VI, compound alone, dose rate 16 ppm.
Where [19] appears, read: Table VI, compound alone, dose rate 64 ppm.
The mark [20] stands for this setting: Table VI, compound alone, dose rate 256 ppm.
The mark [21] stands for this setting: Puccinia recondita, 96 h, Table VII, compound alone, dose rate 4 ppm, read-out: Observed Efficacy.
Setting [22] is: Puccinia recondita, 96 h, Table VII, compound alone, dose rate 16 ppm, read-out: Observed Efficacy.
Setting [23] is: Puccinia recondita, 96 h, Table VII, compound alone, dose rate 64 ppm, read-out: Observed Efficacy.
Setting [24] is: Puccinia recondita, 96 h, Table VII, compound alone, dose rate 256 ppm, read-out: Observed Efficacy.
The mark [25] stands for this setting: Pyrenophora teres, 96 h, Table XIII (Example 13), 4 day residual, dose rate 0.4 ppm, read-out: Observed Efficacy.
Setting [26] is: Pyrenophora teres, 96 h, Table XIII (Example 13), 4 day residual, dose rate 2 ppm, read-out: Observed Efficacy.
Setting [27] is: Pyrenophora teres, 96 h, Table XIII (Example 13), 4 day residual, dose rate 10 ppm, read-out: Observed Efficacy.
Where [28] appears, read: Pyrenophora teres, 96 h, read-out: Observed Efficacy.
Where [29] appears, read: Puccinia recondita, 96 h, read-out: Observed Efficacy.

Where two headings read alike, the source gives them in different places.

With Propiconazole, the “Observed Efficacy” value came out at 0 in assay [1] (setting [5]); 0 in assay [1] (setting [6]); 38 in assay [1] (setting [7]); 74 in assay [1] (setting [8]); 0% in assay [2] (setting [9]); 19% in assay [2] (setting [10]). In addition, the “Observed Efficacy” value in assay [2] (setting [11]) was determined as 76%; in assay [2] (setting [12]), 96%.
For Mancozeb, the “Observed Efficacy” value in assay [3] (dose rate 4 ppm) is 0%; in assay [3] (dose rate 16 ppm), 21%; in assay [3] (dose rate 64 ppm), 47%; in assay [3] (dose rate 256 ppm), 69%; in assay [4] (setting [13]) it was 0%; in assay [4] (setting [14]), 0%. Also, the “Observed Efficacy” value worked out at 28% in assay [4] (setting [15]); 91% in assay [4] (setting [16]); 0% in assay [2] (setting [17]); 0% in assay [2] (setting [18]); 1% in assay [2] (setting [19]); 33% in assay [2] (setting [20]).
As for `N#Cc1sc2c(=O)c3ccccc3c(=O)c=2sc1C#N` [Dithianon], the pest or weed control at 4 ppm in assay [3] (dose rate 4 ppm) was found to be 0%; in assay [4] (setting [21]) it was 4%; in assay [2] (setting [17]), 0%. Besides, the pest or weed control at 16 ppm in assay [3] (dose rate 16 ppm) turned out to be 1%; in assay [4] (setting [22]) it was 16%; in assay [2] (setting [18]) it was 0%. The pest or weed control at 64 ppm came to 37% in assay [3] (dose rate 64 ppm), 84% in assay [4] (setting [23]) and 0% in assay [2] (setting [19]). For the same compound, the pest or weed control at 256 ppm is 74% in assay [3] (dose rate 256 ppm), 95% in assay [4] (setting [24]) and 0% in assay [2] (setting [20]).
With `CO/N=C(/C(=O)OC)c1ccccc1COc1ccccc1C` [Kresoxim-methyl], the pest or weed control at 0.4 ppm in assay [1] (setting [25]) turned out to be 0%; in assay [2] (setting [9]) it was 2%. Besides, the pest or weed control at 2 ppm stood at 21% in assay [1] (setting [26]) and 14% in assay [2] (setting [10]). Moreover, in assay [2] (setting [11]), the pest or weed control at 10 ppm amounted to 88%. In addition, the pest or weed control at 50 ppm in assay [2] (setting [12]) was 100%.
`S1SSSSSSS1` [Sulfur organic, Sulfur]: the pest or weed control at 2 ppm in assay [1] (setting [26]) and in assay [2] (setting [10]) was 0% in each case. Also, the results for the pest or weed control at 10 ppm in assay [1] (setting [27]) and in assay [2] (setting [11]) were 0% and 7%, respectively. In addition, in assay [2] (setting [9]), the pest or weed control at 0.4 ppm is 0%. Further, in assay [2] (setting [12]), the pest or weed control at 50 ppm stood at 0%.
For `CC(Cc1ccc(C(C)(C)C)cc1)CN1CCCCC1` (stereo not shown) [Fenpropidin], the pest or weed control at 64 ppm stood at 0% in assay [3] (dose rate 64 ppm), 8% in assay [4] (setting [23]) and 21% in assay [2] (setting [19]). The pest or weed control at 256 ppm in assay [3] (dose rate 256 ppm) is 21%; in assay [4] (setting [24]) it was 97%; in assay [2] (setting [20]) it was 69%. Moreover, the pest or weed control at 4 ppm in assay [4] (setting [21]) and in assay [2] (setting [17]) was 0% in each case. Also, the values for the pest or weed control at 16 ppm in assay [4] (setting [22]) and in assay [2] (setting [18]) were 0% and 6%, respectively.
For the compound `CCCN(CCOc1c(Cl)cc(Cl)cc1Cl)C(=O)n1ccnc1` [Prochloraz], in assay [1] (setting [28]), the pest or weed control at 0.4 ppm was 8%, the pest or weed control at 2 ppm was found to be 19% and the pest or weed control at 10 ppm was 48%. In addition, in assay [4] (setting [29]), the pest or weed control at 0.4 ppm worked out at 0%, the pest or weed control at 2 ppm was determined as 0%, the pest or weed control at 16 ppm worked out at 1% and the pest or weed control at 50 ppm came to 14%. Also, in assay [2], the pest or weed control at 0.4 ppm turned out to be 0%, the pest or weed control at 2 ppm was determined as 0%, the pest or weed control at 10 ppm was found to be 1% and the pest or weed control at 50 ppm is 18%.
In the case of `CCCCC(C#N)(Cn1cncn1)c1ccc(Cl)cc1` (stereo not shown) [Myclobutanil], the pest or weed control at 0.4 ppm was 0% in assay [1] (setting [25]); 13% in assay [4] (Puccinia recondita, 96 h, Table XII, compound alone, dose rate 0.4 ppm, read-out: Observed Efficacy); 36% in assay [2] (setting [9]). The pest or weed control at 2 ppm in assay [1] (setting [26]) amounted to 21%; in assay [4] (Puccinia recondita, 96 h, Table XII, compound alone, dose rate 2 ppm, read-out: Observed Efficacy), 52%; in assay [2] (setting [10]) it was 52%. Further, the pest or weed control at 10 ppm turned out to be 40% in assay [1] (setting [27]); 72% in assay [4] (Puccinia recondita, 96 h, Table XII, compound alone, dose rate 10 ppm, read-out: Observed Efficacy); 73% in assay [2] (setting [11]). The pest or weed control at 50 ppm in assay [1] (Pyrenophora teres, 96 h, Table XIII (Example 13), 4 day residual, dose rate 50 ppm, read-out: Observed Efficacy) came out at 82%; in assay [4] (Puccinia recondita, 96 h, Table XII, compound alone, dose rate 50 ppm, read-out: Observed Efficacy), 99%; in assay [2] (setting [12]), 96%.
In the case of Quinoxyfen, the “Observed Efficacy” value was 1% in assay [3] (dose rate 16 ppm); 0% in assay [3] (dose rate 64 ppm); 18% in assay [3] (dose rate 256 ppm); 0% in assay [4] (setting [13]); 0% in assay [4] (setting [14]); 0% in assay [4] (setting [15]). For the same compound, the “Observed Efficacy” value is given as 0% in assay [4] (setting [16]); 90% in assay [2] (setting [17]); 100% in assay [2] (setting [18]); 100% in assay [2] (setting [19]); 100% in assay [2] (setting [20]).
As to `[Cl-].[Cu+2].[Cu+2].[OH-].[OH-].[OH-]` [Copper oxychloride], the “Observed Efficacy” value in assay [1] (setting [5]) is listed as 0; in assay [1] (setting [6]) it was 0; in assay [1] (setting [7]), 14; in assay [1] (setting [8]) it was 14.
`COc1ccc(C(=CC(=O)N2CCOCC2)c2ccc(Cl)cc2)cc1OC` [Dimethomorph]: the pest or weed control at 4 ppm in assay [3] (dose rate 4 ppm) turned out to be 1%; in assay [2] (setting [17]), 0%. Besides, the results for the pest or weed control at 16 ppm in assay [3] (dose rate 16 ppm), in assay [4] (setting [22]) and in assay [2] (setting [18]) were 6%, 0% and 0%, respectively. The pest or weed control at 64 ppm in assay [3] (dose rate 64 ppm) stood at 11%; in assay [4] (setting [23]), 0%; in assay [2] (setting [19]) it was 0%. Further, the pest or weed control at 256 ppm was 14% in assay [3] (dose rate 256 ppm), 0% in assay [4] (setting [24]) and 18% in assay [2] (setting [20]).

(Values after patent US6346535B1, “Fungicidal mixtures” (American Cyanamid Company, priority 1999, dated 2002).)
